This assay concerns the target H1047R PIK3CA enzyme (Homo sapiens, UniProt P42336, H1047R). Put plainly: ADP-Glo Biochemical PIK3CA Kinase Assay. (In ADP-Glo the light output rises with the ADP produced.)
Sequence of H1047R PIK3CA enzyme (P42336 whole entry H1047R): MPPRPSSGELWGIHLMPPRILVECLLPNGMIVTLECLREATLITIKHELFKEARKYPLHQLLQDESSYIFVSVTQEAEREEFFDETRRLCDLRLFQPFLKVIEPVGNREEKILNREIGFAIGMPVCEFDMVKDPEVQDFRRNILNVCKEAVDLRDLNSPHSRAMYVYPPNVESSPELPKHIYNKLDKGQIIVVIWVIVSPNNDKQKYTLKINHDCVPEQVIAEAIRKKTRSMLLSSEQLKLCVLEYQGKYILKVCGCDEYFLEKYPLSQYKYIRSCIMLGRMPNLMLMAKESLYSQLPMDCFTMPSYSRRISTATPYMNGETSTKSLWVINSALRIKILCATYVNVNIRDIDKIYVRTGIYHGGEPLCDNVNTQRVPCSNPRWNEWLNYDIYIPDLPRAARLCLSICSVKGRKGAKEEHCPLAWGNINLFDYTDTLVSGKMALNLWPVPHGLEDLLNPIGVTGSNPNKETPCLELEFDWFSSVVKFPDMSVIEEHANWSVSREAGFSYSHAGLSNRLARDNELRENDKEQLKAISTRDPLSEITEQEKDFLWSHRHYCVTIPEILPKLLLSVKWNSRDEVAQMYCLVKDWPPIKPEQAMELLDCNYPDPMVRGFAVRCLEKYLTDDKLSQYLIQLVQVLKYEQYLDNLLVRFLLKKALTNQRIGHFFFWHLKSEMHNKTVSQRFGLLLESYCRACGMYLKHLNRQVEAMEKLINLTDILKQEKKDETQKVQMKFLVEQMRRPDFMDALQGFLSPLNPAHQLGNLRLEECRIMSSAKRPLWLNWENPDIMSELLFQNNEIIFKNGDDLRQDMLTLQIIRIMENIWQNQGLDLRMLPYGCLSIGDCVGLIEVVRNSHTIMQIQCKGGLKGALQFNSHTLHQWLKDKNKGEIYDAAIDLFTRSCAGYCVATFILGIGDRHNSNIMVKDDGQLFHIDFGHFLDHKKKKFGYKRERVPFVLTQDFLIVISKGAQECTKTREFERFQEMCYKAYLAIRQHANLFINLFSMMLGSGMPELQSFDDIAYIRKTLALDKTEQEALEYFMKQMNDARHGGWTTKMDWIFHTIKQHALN
Sequence of H1047R PIK3CA enzyme (P27986 whole entry partner): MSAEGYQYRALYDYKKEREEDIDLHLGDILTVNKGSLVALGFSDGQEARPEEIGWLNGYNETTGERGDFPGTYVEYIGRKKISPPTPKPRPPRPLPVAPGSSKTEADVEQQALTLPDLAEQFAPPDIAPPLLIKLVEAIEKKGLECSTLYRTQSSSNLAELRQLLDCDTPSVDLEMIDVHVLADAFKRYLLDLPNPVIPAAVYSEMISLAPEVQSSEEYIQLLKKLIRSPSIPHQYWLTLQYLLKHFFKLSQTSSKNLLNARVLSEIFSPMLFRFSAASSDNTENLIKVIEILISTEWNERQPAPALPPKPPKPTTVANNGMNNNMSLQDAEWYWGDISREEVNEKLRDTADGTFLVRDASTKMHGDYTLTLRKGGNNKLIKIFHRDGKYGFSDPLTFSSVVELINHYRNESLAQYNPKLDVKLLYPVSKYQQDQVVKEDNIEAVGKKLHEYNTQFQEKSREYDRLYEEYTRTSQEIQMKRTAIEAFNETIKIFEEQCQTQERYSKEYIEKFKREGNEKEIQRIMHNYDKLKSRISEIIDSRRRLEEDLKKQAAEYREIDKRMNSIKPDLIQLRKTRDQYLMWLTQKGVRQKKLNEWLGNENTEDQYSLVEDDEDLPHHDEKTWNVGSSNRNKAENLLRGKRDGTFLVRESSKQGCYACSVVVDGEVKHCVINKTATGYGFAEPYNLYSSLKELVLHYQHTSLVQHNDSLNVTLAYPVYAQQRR
In general, IC50 refers to the concentration that gives 50% inhibition. The compound `[2H][C@@]1(c2cc(F)ccc2Cl)NC(=O)c2cccc(NC(=O)N3C[C@](O)(C(F)(F)F)c4cc(F)ccc43)c21` (single isomer, unassigned) [Compound I-2681] yielded a concentration for half-maximal inhibition (IC50) of 1 to 10 µM.

The compound `O=C(Nc1cc(-c2ccc3ncnn3c2)cc2c1[C@H](c1cc(F)ccc1Cl)NC2=O)c1cccc(C(F)(F)F)c1` (stereo in doubt) [Compound I-1121] showed a half-inhibitory concentration (IC50) of at most 0.1 µM. Consider `C=CC(=O)Nc1cc(NC(=O)c2cc(F)cc(C(F)(F)F)c2)c2c(c1)C(=O)NC2c1cc(F)ccc1Cl` (stereo not shown) [Compound I-406], for which the IC50 was at most 0.1 µM. As for `CS(=O)(=O)N1CCC[C@@H]1COc1cc(NC(=O)c2cc(F)cc(C(F)(F)F)c2)c2c(c1)C(=O)NC2c1cc(F)ccc1Cl` (single isomer, unassigned) [Compound I-1378], the figure is at most 0.1 µM; as for `Cn1nccc1Cc1cc(NC(=O)c2cc(F)cc(C(F)(F)F)c2)c2c(c1)C(=O)NC2c1cc(F)ccc1Cl` (stereo not shown) [Compound I-1293], at most 0.1 µM. As for `O=C(Nc1cc(Br)cc2c1C(c1cc(F)ccc1F)NC2=O)c1cc(F)cc(C(F)(F)F)c1` (stereo not shown) [Compound I-675], the figure is at most 0.1 µM.

In turn, `O=C(Nc1cccc2c1C(c1cc(F)c(F)cc1C(F)F)NC2=O)c1cc(F)cc(C(F)(F)F)c1` (stereo not shown) [Compound I-330] returned a 50% inhibitory concentration (IC50) of at most 0.1 µM.

In turn, `O=C1NC(c2cc(F)ccc2Cl)c2c(NC(=O)N3CCc4ccccc4CC3)cccc21` (stereo not shown) [Compound I-2308] gave an IC50 of 10 to 100 µM. As for `O=C1NC(c2cc(F)ccc2Cl)c2c(CC(=O)N3CCc4ccccc43)cc(-c3ccc4ncnn4c3)cc21` (stereo not shown) [Compound I-1914], the figure is 10 to 100 µM. As for `O=C1NC(c2cc(F)ccc2Cl)c2c(NC(=O)C3(c4cccc(F)c4)CCCC3)cc(Br)cc21` (stereo not shown) [Compound I-1638], the figure is 10 to 100 µM. In the case of `CC(C)(C#N)n1cc(-c2cc(NC(=O)N3C[C@@](O)(C(F)(F)F)c4cc(F)ccc43)c3c(c2)C(=O)N[C@H]3c2cc(F)ccc2Cl)cn1` (single isomer, unassigned) [Compound I-2612], the IC50 lay within 1 to 10 µM. With `Cc1cn(-c2cc(NC(=O)N3C[C@@](O)(C(F)(F)F)c4cc(F)ccc43)c3c(c2)C(=O)N[C@@H]3c2cc(F)ccc2Cl)cn1` (single isomer, unassigned) [Compound I-2636] the figure was 1 to 10 µM; with `C=CCCNC(=O)c1cc(NC(=O)c2cc(F)cc(C(F)(F)F)c2)c2c(c1)C(=O)NC2c1cc(F)ccc1Cl` (stereo not shown) [Compound I-1422], at most 0.1 µM; with `O=C(Nc1cc(CS(=O)(=O)N2CCOCC2)cc2c1C(c1cc(F)ccc1Cl)NC2=O)c1cc(F)cc(C(F)(F)F)c1` (stereo not shown) [Compound I-1364], at most 0.1 µM. As for `Cc1ccccc1C1NC(=O)c2cccc(Nc3nc(C)c4ccccc4n3)c21` (stereo not shown) [Compound I-28], the figure is 10 to 100 µM; as for `O=C1N[C@H](c2cc(F)ccc2Cl)c2c(NC(=O)N3C[C@@H](O)c4c(F)cccc43)cccc21` (single isomer, unassigned) [Compound I-2145], 1 to 10 µM; as for `O=C1NCc2c(NC(=O)N3CCCC[C@@H]3Cc3ccccc3)cccc21` (stereo in doubt) [Compound I-989], 10 to 100 µM. As for `Cc1ccccc1C1NC(=O)c2cccc(NC(=O)c3noc4ccc(F)cc34)c21` (stereo not shown) [Compound I-21], the IC50 is 1 to 10 µM. With `O=C(Nc1cc(-c2ccc3ccnn3c2)cc2c1C(c1cc(F)ccc1Cl)NC2=O)c1cc(F)cc(C(F)(F)F)c1` (stereo not shown) [Compound I-1499] the figure was at most 0.1 µM; with `CC(C)(O)Cn1cc(-c2cc(NC(=O)c3cc(F)cc(C(F)(F)F)c3)c3c(c2)C(=O)N[C@@H]3c2cc(F)ccc2Cl)cn1` [Compound I-1096], 10 to 100 µM. As for `O=C(Nc1cc(C2COCCO2)cc2c1C(c1cc(F)ccc1Cl)NC2=O)c1cc(F)cc(C(F)(F)F)c1` (stereo not shown) [Compound I-1361], the figure is 0.1 to 0.5 µM; as for `O=C1NC(c2cc(F)ccc2Cl)c2c(O)cc(-c3ccc4ncnn4c3)cc21` (stereo not shown) [Compound I-1891], 1 to 10 µM.

Take `O=C(Nc1cc(NC2CCC(O)C2)cc2c1C(c1cc(F)ccc1Cl)NC2=O)c1cc(F)cc(C(F)(F)F)c1` (stereo not shown) [Compound I-359]: the half-maximal inhibitory concentration (IC50) was at most 0.1 µM. As for `N#CC1CC(Oc2cc(NC(=O)c3cc(F)cc(C(F)(F)F)c3)c3c(c2)C(=O)NC3c2cc(F)ccc2Cl)C1` (stereo not shown) [Compound I-1129], the figure is at most 0.1 µM; as for `O=C(Nc1cc(-c2ccc3nccn3n2)cc2c1[C@H](c1cc(F)ccc1Cl)NC2=O)c1cc(F)cc(C(F)(F)F)c1` [Compound I-1332], at most 0.1 µM. For `O=C(Nc1cc(-c2ccc3nc(C(F)F)cn3c2)cc2c1[C@H](c1cc(F)ccc1Cl)NC2=O)c1cc(F)cc(C(F)(F)F)c1` [Compound I-1929], the half-maximal inhibitory concentration (IC50) is at most 0.1 µM. As for `O=C1NCc2c(NC(=O)c3csc4ccccc34)cccc21` [Compound I-3], the figure is 10 to 100 µM. As for `O=C(Nc1cc(NC(=O)C(F)F)cc2c1C(c1cc(F)ccc1Cl)NC2=O)c1cc(F)cc(C(F)(F)F)c1` (stereo not shown) [Compound I-467], the figure is at most 0.1 µM; as for `CC(C)(O)C(=O)Nc1cc(NC(=O)c2cc(F)cc(C(F)(F)F)c2)c2c(c1)C(=O)NC2c1cc(F)ccc1Cl` (stereo not shown) [Compound I-591], at most 0.1 µM.

`O=C(Nc1cccc2c1C(c1cc(F)ccc1Br)NC2=O)c1cc(F)cc(C(F)(F)F)c1` (stereo not shown) [Compound I-628] had an IC50 of at most 0.1 µM. As for `N#CC1(CNc2cc(NC(=O)c3cc(F)cc(C(F)(F)F)c3)c3c(c2)C(=O)NC3c2cc(F)ccc2Cl)CC1` (stereo not shown) [Compound I-695], the figure is at most 0.1 µM. Compound `Cc1cnccc1-c1cc(NC(=O)c2cc(F)cc(Cl)c2)c2c(n1)C(=O)NC2c1cc(F)ccc1Cl` (stereo not shown) [Compound I-503] gave an IC50 of at most 0.1 µM. Consider `CC(C)(C)OC(=O)NCCSc1cc(NC(=O)c2cc(F)cc(C(F)(F)F)c2)c2c(c1)C(=O)NC2c1cc(F)ccc1Cl` (stereo not shown) [Compound I-1297], for which the half-inhibitory concentration (IC50) is 0.1 to 0.5 µM. With `O=C(Nc1cc(-c2cnc(-n3ccnc3)nc2)cc2c1C(c1cc(F)ccc1Cl)NC2=O)c1cc(F)cc(C(F)(F)F)c1` (stereo not shown) [Compound I-1482] the figure was at most 0.1 µM; with `O=C(Nc1cc(-n2cc(F)cn2)nc2c1C(c1cc(F)ccc1Cl)NC2=O)c1cc(F)cc(C(F)(F)F)c1` (stereo not shown) [Compound I-354], 0.1 to 0.5 µM.

For the compound `CN1C[C@@H](COc2cc(NC(=O)c3cc(F)cc(C(F)(F)F)c3)c3c(c2)C(=O)N[C@@H]3c2cc(F)ccc2Cl)CC1=O` (single isomer, unassigned) [Compound I-1523], the IC50 was in the range of 1 to 10 µM.

In turn, `O=C(Nc1cccc2c1[C@H](C13C[C@H]4C[C@@H](C1)C[C@@H](C3)C4)NC2=O)c1cc(F)cc(C(F)(F)F)c1` (racemic) [Compound I-2075] showed a 50% inhibitory concentration (IC50) of 1 to 10 µM. `O=C(Nc1cc(CS(=O)(=O)Nc2cccnc2)cc2c1C(c1cc(F)ccc1Cl)NC2=O)c1cc(F)cc(C(F)(F)F)c1` (stereo not shown) [Compound I-1402] came in with an IC50 of at most 0.1 µM. As for `O=C(Nc1cc(-c2cncc(F)c2)nc2c1C(c1cc(F)ccc1Cl)NC2=O)c1cc(F)cc(C(F)(F)F)c1` (stereo not shown) [Compound I-585], the figure is at most 0.1 µM.

For the compound `O=C(Nc1cc(Br)cc2c1C(c1cc(F)ccc1Cl)NC2=O)c1cc(F)cc(OC(F)(F)F)c1` (stereo not shown) [Compound I-831], the IC50 was 0.1 to 0.5 µM. As for `O=C1NC(c2cc(F)ccc2Cl)c2c(NC(=O)N3CCSC(C(F)(F)F)C3)cccc21` (stereo not shown) [Compound I-2340], the figure is 10 to 100 µM.

Compound `N#Cc1cccc(C(=O)Nc2cc(Br)cc3c2C(c2cc(F)ccc2Cl)NC3=O)c1` (stereo not shown) [Compound I-522] yielded an IC50 of 1 to 10 µM. On to `C=CC(CC(=O)Nc1cccc2c1C(c1cc(F)ccc1Cl)NC2=O)C(C)C(F)(F)F` (mixture of isomers) [Compound I-2195], for which the IC50 was in the range of 1 to 10 µM. With `O=C1NC(c2cc(F)ccc2Cl)c2c(NC(=O)N3CCC4C3[C@@H]4C(F)(F)F)cccc21` (single isomer, unassigned) [Compound I-2329] the figure was 1 to 10 µM. Compound `CS(=O)(=O)Cc1cc(NC(=O)c2cc(F)cc(C(F)(F)F)c2)c2c(c1)C(=O)N[C@@H]2c1cc(F)ccc1Cl` [Compound I-619] had a half-maximal inhibitory concentration (IC50) of 1 to 10 µM. With `COCc1cc(F)cc(C(=O)Nc2cc(Br)cc3c2C(c2cc(F)ccc2Cl)NC3=O)c1` (stereo not shown) [Compound I-1316] the figure was 1 to 10 µM; with `O=C(Nc1cc(Br)cc2c1C(c1cc(F)ccc1Cl)NC2=O)c1ccc(OC(F)(F)F)cc1` (stereo not shown) [Compound I-524], 1 to 10 µM. With `N#Cc1c(-c2cc(NC(=O)c3cc(F)cc(Cl)c3)c3c(c2)C(=O)N[C@@H]3c2cc(F)ccc2Cl)ccc2ncnn12` [Compound I-2064] the figure was at most 0.1 µM; with `O=C1NC(c2cc(F)ccc2Cl)c2c(Nc3coc4ccccc34)cc(Br)cc21` (stereo not shown) [Compound I-1691], 1 to 10 µM; with `O=C(Nc1cccc2c1C(C1CCNCC1)NC2=O)c1cc(F)cc(C(F)(F)F)c1` (racemic) [Compound I-1770], 1 to 10 µM.

Turning to `N#Cc1cc(F)cc(C(=O)Nc2ccnc3c2C(c2ccccc2Cl)NC3=O)c1` (stereo not shown) [Compound I-235], the half-inhibitory concentration (IC50) fell in the range of 10 to 100 µM. As for `O=C(Nc1cc(CC2COC2)cc2c1C(c1cc(F)ccc1Cl)NC2=O)c1cc(F)cc(C(F)(F)F)c1` (stereo not shown) [Compound I-1279], the figure is at most 0.1 µM. With `CC[C@H](CC(=O)Nc1cccc2c1[C@H](c1cc(F)ccc1Cl)NC2=O)[C@@H](C)C(F)(F)F` (single isomer, unassigned) [Compound I-2335] the figure was 1 to 10 µM; with `O=C1N[C@H](c2cc(F)ccc2Cl)c2c(NC(=O)N3C[C@](O)(C(F)(F)F)c4cc(F)ccc43)cc(C3COC3)cc21` (single isomer, unassigned) [Compound I-2653], 10 to 100 µM. Compound `O=C1N[C@H](c2cc(F)ccc2Cl)c2c(NC(=O)N3C[C@](O)(C(F)(F)F)c4cc(F)ccc43)cc(N3CCOC3=O)cc21` (single isomer, unassigned) [Compound I-2674] had an IC50 of 1 to 10 µM. The compound `[2H]c1nc2ccc(-c3cc(NC(=O)c4cc(F)cc(C(F)(F)F)c4)c4c(c3)C(=O)N[C@H]4c3cc(F)ccc3Cl)cn2n1` (stereo in doubt) [Compound I-1785] came in with a half-inhibitory concentration (IC50) of at most 0.1 µM.

In turn, `O=C(Nc1cccc2c1C(c1cc(O)ccc1Cl)NC2=O)c1cc(O)cc(C(F)(F)F)c1` (stereo not shown) [Compound I-415] showed an IC50 of 10 to 100 µM. As for `Nc1nc2ccc(-c3cc(NC(=O)c4cc(F)cc(C(F)(F)F)c4)c4c(c3)C(=O)NC4c3cc(F)ccc3Cl)cn2n1` (stereo not shown) [Compound I-1368], the figure is at most 0.1 µM.

The values above are taken from patent US12581252B2, “Substituted pyrrolo[3,4-b]pyridines as PI3K-α inhibitors” (Relay Therapeutics, Inc., priority 2020, dated 2026).
